Numbers after ± are expanded uncertainties.
Test: cn = amount concentration of the nth substance listed, in mol/dm3
Conditions: 298.15 K, 101 kPa, Liquid, c1 = 1

## CNCC(=O)O [sarcosine] + O
Sing-around technique in a fixed-path interferometer
  speed of sound: 1561.4 ± 1.3 m/s
Vibrating tube method
  mass density: 1023.26 ± 0.12 kg/m3
